The target of the experiment is T1, human FXR (NR1H4) (Homo sapiens, UniProt Q96RI1).
T1 sequence (Q96RI1 1-486): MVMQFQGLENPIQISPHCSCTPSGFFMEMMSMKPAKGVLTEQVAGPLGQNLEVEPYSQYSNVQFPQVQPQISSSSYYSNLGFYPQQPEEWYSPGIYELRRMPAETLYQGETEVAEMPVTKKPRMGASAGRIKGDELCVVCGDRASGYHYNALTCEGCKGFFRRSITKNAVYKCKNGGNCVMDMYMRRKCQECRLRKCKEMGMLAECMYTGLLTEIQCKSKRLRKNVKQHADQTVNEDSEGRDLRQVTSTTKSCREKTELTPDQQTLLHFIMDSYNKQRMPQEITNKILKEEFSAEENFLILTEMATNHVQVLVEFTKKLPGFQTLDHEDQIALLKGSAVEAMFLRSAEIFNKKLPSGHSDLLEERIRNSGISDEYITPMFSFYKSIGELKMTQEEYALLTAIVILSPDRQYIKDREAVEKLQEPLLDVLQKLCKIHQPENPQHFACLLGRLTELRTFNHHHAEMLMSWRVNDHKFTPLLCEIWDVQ
As to the kind of experiment: Human FXR (NR1H4) Assay: Gal4 promoter driven luciferase reporter transactivation in CHO cells (Indigo Bioscience kit IB00601). The format is cell-based. The settings on record: for Emax: CHO, efficacy normalized to CDCA set as 100%, read-out: Efficacy (%); for EC50: potency range, Human FXR (NR1H4) reporter assay in CHO cells, read-out: EC50. Summed up: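 CHO reporter cells expressing human NR1H4 with luciferase driven by an FXR-responsive promoter (Gal4 system), run per manufacturer's kit. Compounds applied to plated cells, then incubated a further 22 hours at 37° C. Luciferase luminescence read after detection reagent as a surrogate of FXR activation, giving potency and efficacy.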
In general terms: A reporter such as luciferase makes a cellular process visible.

Structures are written as SMILES. Several values for one entry are separate records, joined by “and”; a condition that tells them apart may be missing. Identical values can stand only once.

Usually EC50 stands for the midpoint of the concentration-response curve. With `COC(=O)c1ccc(F)c(NC(=O)N2C3CCC2CC(OCc2c(-c4c(Cl)cccc4Cl)noc2C2CC2)C3)c1` (centres unmarked) [Example 722], the Emax stood at 115% and the half-maximal effective concentration (EC50) was below 10 nM. In the case of `O=C(O)c1ccc(F)c(NC(=O)N2C3CCC2CC(OCc2c(-c4c(Cl)cccc4Cl)noc2C2CC2)C3)c1` (centres unmarked) [Example 723], the Emax stood at 140% and the EC50 is 100 to 1000 nM. The matching figures for `COC(=O)c1ccc(OC)c(NC(=O)N2C3CCC2CC(OCc2c(-c4c(Cl)cccc4Cl)noc2C2CC2)C3)c1` (centres unmarked) [Example 724]: 137% and 10 to 100 nM. The matching figures for `COc1ccc(C(=O)O)cc1NC(=O)N1C2CCC1CC(OCc1c(-c3c(Cl)cccc3Cl)noc1C1CC1)C2` (centres unmarked) [Example 725]: 140% and 100 to 1000 nM.

As to `COC(=O)c1cc(NC(=O)N2C3CCC2CC(OCc2c(-c4c(Cl)cccc4Cl)noc2C2CC2)C3)cc(-c2cccnc2)c1` (centres unmarked) [Example 726], the Emax was 81% and the EC50 was below 10 nM. Consider `O=C(O)c1cc(NC(=O)N2C3CCC2CC(OCc2c(-c4c(Cl)cccc4Cl)noc2C2CC2)C3)cc(-c2cccnc2)c1` (centres unmarked) [Example 727], for which the EC50 is 10 to 100 nM and < 10 nM. Take `O=C(Nc1ccc(-c2ccccc2)cc1)N1C2CCC1CC(OCc1c(-c3c(Cl)cccc3Cl)noc1C1CC1)C2` (centres unmarked) [Example 728]: the Emax turned out to be 141% and the EC50 was 10 to 100 nM.

In the case of `O=C(Nc1cccc(-c2ccccc2)c1)N1C2CCC1CC(OCc1c(-c3c(Cl)cccc3Cl)noc1C1CC1)C2` (centres unmarked) [Example 729], the Emax was determined as 148% and the EC50 is below 10 nM.

Turning to `O=C(NCc1ccccc1)N1C2CCC1CC(OCc1c(-c3c(Cl)cccc3Cl)noc1C1CC1)C2` (centres unmarked) [Example 730], the Emax stood at 252% and the EC50 was below 10 nM. The matching figures for `COc1ccc(CNC(=O)N2C3CCC2CC(OCc2c(-c4c(Cl)cccc4Cl)noc2C2CC2)C3)cc1` (centres unmarked) [Example 731]: 229% and below 10 nM. The matching figures for `O=C(NCc1ccc(F)cc1)N1C2CCC1CC(OCc1c(-c3c(Cl)cccc3Cl)noc1C1CC1)C2` (centres unmarked) [Example 732]: 180% and below 10 nM. For `O=C(NCc1ccc(F)c(F)c1)N1C2CCC1CC(OCc1c(-c3c(Cl)cccc3Cl)noc1C1CC1)C2` (centres unmarked) [Example 733] the same measures were 175% and below 10 nM. Take `O=C(NCc1cccc(C(F)(F)F)c1)N1C2CCC1CC(OCc1c(-c3c(Cl)cccc3Cl)noc1C1CC1)C2` (centres unmarked) [Example 734]: the Emax came to 172% and the EC50 lay within 10 to 100 nM.

`O=C(NCc1cccc(-c2ccccc2)c1)N1C2CCC1CC(OCc1c(-c3c(Cl)cccc3Cl)noc1C1CC1)C2` (centres unmarked) [Example 735]: the Emax turned out to be 136% and the EC50 lay within 100 to 1000 nM. In the case of `O=C(Nc1cccc(-c2ccccn2)c1)N1C2CCC1CC(OCc1c(-c3c(Cl)cccc3Cl)noc1C1CC1)C2` (centres unmarked) [Example 736], the Emax came out at 136% and the EC50 is below 10 nM.

Consider `O=C(Nc1cccc(-c2nccs2)c1)N1C2CCC1CC(OCc1c(-c3c(Cl)cccc3Cl)noc1C1CC1)C2` (centres unmarked) [Example 737], for which the Emax came out at 179% and the EC50 was below 10 nM. For `O=C(NCc1ccc(-c2ccccc2)cc1)N1C2CCC1CC(OCc1c(-c3c(Cl)cccc3Cl)noc1C1CC1)C2` (centres unmarked) [Example 738] the same measures were 139% and 100 to 1000 nM. Regarding `O=C(NCc1cncc(-c2ccccc2)c1)N1C2CCC1CC(OCc1c(-c3c(Cl)cccc3Cl)noc1C1CC1)C2` (centres unmarked) [Example 739], the Emax stood at 108% and the EC50 fell in the range of 10 to 100 nM.

For the compound `O=C(NCc1ccccc1-c1ccccc1)N1C2CCC1CC(OCc1c(-c3c(Cl)cccc3Cl)noc1C1CC1)C2` (centres unmarked) [Example 740], the Emax was found to be 90% and the half-maximal effective concentration (EC50) is below 10 nM.

For the compound `CCOC(=O)c1ccccc1NC(=O)N1C2CCC1CC(OCc1c(-c3ccccc3OC(F)(F)F)noc1C1CC1)C2` (centres unmarked) [Example 743], the Emax turned out to be 140% and the EC50 was above 1000 nM.

For `O=C(O)c1ccccc1NC(=O)N1C2CCC1CC(OCc1c(-c3ccccc3OC(F)(F)F)noc1C1CC1)C2` (centres unmarked) [Example 744], the Emax came out at 165% and the EC50 is above 1000 nM.

For the compound `COC(=O)c1ccc(NC(=O)N2C3CCC2CC(OCc2c(-c4ccccc4OC(F)(F)F)noc2C2CC2)C3)c(F)c1` (centres unmarked) [Example 745], the EC50 was in the range of 100 to 1000 nM. Turning to `O=C(O)c1cccc(NC(=O)N2C3CCC2CC(OCc2c(-c4ccccc4OC(F)(F)F)noc2C2CC2)C3)c1F` (centres unmarked) [Example 746], the Emax turned out to be 156% and the EC50 is above 1000 nM. The matching figures for `COC(=O)c1ccc(F)c(NC(=O)N2C3CCC2CC(OCc2c(-c4ccccc4OC(F)(F)F)noc2C2CC2)C3)c1` (centres unmarked) [Example 747]: 145% and 100 to 1000 nM. The matching figures for `O=C(O)c1ccc(F)c(NC(=O)N2C3CCC2CC(OCc2c(-c4ccccc4OC(F)(F)F)noc2C2CC2)C3)c1` (centres unmarked) [Example 748]: 103% and 10 to 100 nM.

Consider `COC(=O)c1ccc(OC)c(NC(=O)N2C3CCC2CC(OCc2c(-c4ccccc4OC(F)(F)F)noc2C2CC2)C3)c1` (centres unmarked) [Example 749], for which the Emax is 104% and the EC50 fell in the range of 10 to 100 nM. For `COc1ccc(C(=O)O)cc1NC(=O)N1C2CCC1CC(OCc1c(-c3ccccc3OC(F)(F)F)noc1C1CC1)C2` (centres unmarked) [Example 750] the same measures were 76% and 100 to 1000 nM.

In the case of `COC(=O)c1cccc(OC)c1NC(=O)N1C2CCC1CC(OCc1c(-c3ccccc3OC(F)(F)F)noc1C1CC1)C2` (centres unmarked) [Example 751], the Emax is 26% and the EC50 was 100 to 1000 nM. The matching figures for `CS(=O)(=O)NC(=O)c1ccc(NC(=O)N2C3CCC2CC(OCc2c(-c4ccccc4OC(F)(F)F)noc2C2CC2)C3)cc1` (centres unmarked) [Example 752]: 239% and above 1000 nM.

Consider `CN(C)S(=O)(=O)NC(=O)c1ccc(NC(=O)N2C3CCC2CC(OCc2c(-c4ccccc4OC(F)(F)F)noc2C2CC2)C3)cc1` (centres unmarked) [Example 753], for which the Emax came out at 217% and the 50% effective concentration (EC50) was in the range of 10 to 100 nM. Consider `CC(C)S(=O)(=O)NC(=O)c1ccc(NC(=O)N2C3CCC2CC(OCc2c(-c4ccccc4OC(F)(F)F)noc2C2CC2)C3)cc1` (centres unmarked) [Example 754], for which the Emax amounted to 236% and the EC50 fell in the range of 100 to 1000 nM. Take `O=C(NS(=O)(=O)C1CC1)c1ccc(NC(=O)N2C3CCC2CC(OCc2c(-c4ccccc4OC(F)(F)F)noc2C2CC2)C3)cc1` (centres unmarked) [Example 755]: the Emax is 220% and the EC50 fell in the range of 100 to 1000 nM. The matching figures for `O=C(NS(=O)(=O)c1ccccc1)c1ccc(NC(=O)N2C3CCC2CC(OCc2c(-c4ccccc4OC(F)(F)F)noc2C2CC2)C3)cc1` (centres unmarked) [Example 756]: 205% and 100 to 1000 nM. The matching figures for `CC(C)(C)c1ccc(S(=O)(=O)NC(=O)c2ccc(NC(=O)N3C4CCC3CC(OCc3c(-c5ccccc5OC(F)(F)F)noc3C3CC3)C4)cc2)cc1` (centres unmarked) [Example 757]: 257% and 100 to 1000 nM. The matching figures for `CC(C)S(=O)(=O)NC(=O)c1cccc(NC(=O)N2C3CCC2CC(OCc2c(-c4ccccc4OC(F)(F)F)noc2C2CC2)C3)c1` (centres unmarked) [Example 758]: 233% and 100 to 1000 nM. For the compound `O=C(NS(=O)(=O)c1ccccc1)c1cccc(NC(=O)N2C3CCC2CC(OCc2c(-c4ccccc4OC(F)(F)F)noc2C2CC2)C3)c1` (centres unmarked) [Example 759], the Emax stood at 205% and the EC50 is above 1000 nM. The matching figures for `COc1c(NC(=O)N2C3CCC2CC(OCc2c(-c4ccccc4OC(F)(F)F)noc2C2CC2)C3)cccc1C(=O)OC(C)(C)C` (centres unmarked) [Example 760]: 180% and above 1000 nM.

In the case of `COc1c(NC(=O)N2C3CCC2CC(OCc2c(-c4ccccc4OC(F)(F)F)noc2C2CC2)C3)cccc1C(=O)O` (centres unmarked) [Example 761], the Emax worked out at 105% and the EC50 was above 1000 nM. The matching figures for `COc1cccc(C(=O)O)c1NC(=O)N1C2CCC1CC(OCc1c(-c3ccccc3OC(F)(F)F)noc1C1CC1)C2` (centres unmarked) [Example 762]: 6% and 100 to 1000 nM. For `COC(=O)c1cccc(F)c1NC(=O)N1C2CCC1CC(OCc1c(-c3ccccc3OC(F)(F)F)noc1C1CC1)C2` (centres unmarked) [Example 763] the same measures were 211% and 100 to 1000 nM. The matching figures for `COC(=O)c1ccc(NC(=O)N2C3CCC2CC(OCc2c(-c4ccccc4OC(F)(F)F)noc2C2CC2)C3)nc1` (centres unmarked) [Example 764]: 230% and 100 to 1000 nM.

Take `CCOC(=O)c1ccnc(NC(=O)N2C3CCC2CC(OCc2c(-c4ccccc4OC(F)(F)F)noc2C2CC2)C3)c1` (centres unmarked) [Example 765]: the Emax was 272% and the EC50 was 10 to 100 nM.

Regarding `CCOC(=O)c1cccc(NC(=O)N2C3CCC2CC(OCc2c(-c4ccccc4OC(F)(F)F)noc2C2CC2)C3)n1` (centres unmarked) [Example 766], the Emax was found to be 192% and the EC50 is above 1000 nM. The matching figures for `CCOC(=O)c1cccnc1NC(=O)N1C2CCC1CC(OCc1c(-c3ccccc3OC(F)(F)F)noc1C1CC1)C2` (centres unmarked) [Example 767]: 136% and 100 to 1000 nM.

These data come from patent US10597391B2, “Urea-containing isoxazole derivatives as FXR agonists and methods of use thereof” (Enanta Pharmaceuticals, Inc., priority 2016, dated 2020).
